The source of these data is patent publication US20260109732A1, “LIPID AMINES” (ModernaTX, Inc., priority 2021, published 2026).

Data set [1] can be described thus: Diameter and PDI from DLS measurements of mRNA nanoparticles with lipid amines. The class given is physicochemical. As for the experimental part: (§1) Lipids are dissolved in ethanol at a concentration of 24 mg/mL and molar ratios of 49.0:11.2:39.3:0.5 (IL1:DSPC:cholesterol:PEG-DMG-2K) and mixed with the acidification buffer (45 mM acetate buffer at pH 4). The lipid solution and acidification buffer are mixed using a multi-inlet vortex mixer at a 3:7 volumetric ratio of lipid:buffer for mixer 1 and mixer 2 and a 1:3 volumetric ratio of lipid:buffer (25% ethanol) for mixer 3. After a 5 second residence time, the resulting nanoparticles are mixed with 55 mM sodium acetate at pH 5.6 at a volumetric ratio of 5:7 of nanoparticle:buffer. See Table 2a for mixing parameters. The resulting dilute nanoparticles are then buffer exchanged and concentrated using tangential flow filtration (TFF) into a final buffer containing 5 mM sodium acetate pH 5.0. Then a 70% sucrose solution in 5 mM acetate buffer at pH 5 is subsequently added.
(§2) The resulting nanoparticles at a lipid concentration of 7.33 mg/mL in 5 mM acetate (pH 5) and 75 g/L sucrose are mixed with mRNA (luciferease or CFTR) at a concentration of 0.625 mg/mL in 42.5 mM sodium acetate pH 5.0, with N:P of 4.93. The nanoparticle solution and nanoparticles are mixed using a multi-inlet vortex mixer at a 3:2 volumetric ratio of nanoparticle:mRNA. Once loaded with mRNA, these intermediate nanoparticles undergo a 300 second residence time prior addition of neutralization buffer containing 120 mM TRIS pH 8.12 at a volumetric ratio of 5:1 of nanoparticle:buffer.
(§3) For HeLa studies evaluating luciferase protein expression, PEG-DMG-2K dissolved in a 20 mM TRIS buffer (pH 7.5) is added to the neutralized intermediate nanoparticle solution at a ratio of 1:6, bringing the solution to the final molar ratios of IL1:DSPC:cholesterol:PEG-DMG-2K of 48.5:11.1:38.9:1.5%. This nanoparticle formulation is then modified with lipid amines. In a typical example, nanoparticle formulation at a concentration of 0.18 mg/mL mRNA and a 0.56 mL volume is modified with lipid amine SA50 (467.2 nmol) prepared in buffer containing 20 mM TRIS, 14.3 mM sodium acetate, 32 g/L sucrose and 140 mM NaCl-pH 7.5 at a volumetric ratio of 1:1 of nanoparticle:buffer.
(§4) For HeLa studies evaluating CFTR protein expression, the intermediate nanoparticle formulation (1 mL, 0.415 mg mRNA) is mixed with a buffer containing 20 mM TRIS (pH 7.5), 0.9 mg/mL PEG-DMG-2K and lipid amine SA50 (647.1 nmol) at a volumetric ratio of 6:1 of nanoparticle:buffer. The resulting nanoparticle suspension undergoes concentration using a centrifugal filtration device (100 kDa molecular weight cut-off) and is diluted in running buffer (20 mM TRIS, 14.3 mM sodium acetate, and 32 g/L sucrose, pH 7.5) with a 300 mM NaCl solution to a final buffer matrix containing 70 mM NaCl.
(§5) Both resulting nanoparticle suspensions are filtered through a 0.8/0.2 μm capsule filter and filled into glass vials at an mRNA strength of about 0.1-1 mg/mLBliophysical data (Diameter and PDI from DLS measurements and Encapsualtion using Ribogreen assay) for both luciferase and CFTR mRNA nanoparticles with lipid amines is shown in Tables 2c and d, respectively.

The test system of data set [2] is HeLa cells. In words: CFTR Protein Expression Assay in HeLa Cells. It counts as cell-based, Human. The note with it: LNPs encapsulating CFTR mRNA, N=4 wells; 5 h serum-free then 24 h; immunofluorescence vs PBS control. As for the experimental part: as §4
(§6) Lipid nanoparticle compositions were prepared in a manner analogous to that in example 2. To evaluate LNP cellular uptake and protein expression In Vitro, HeLa cells from ATCC.org (ATCC CCL-2) are used. The cells are cultured in complete Minimum Essential Medium (MVEM) and are plated in 96 well Cell Carrier Ultra plate with PDL coated surface (PerkinElmer) prior to running an experiment.
Buffer control (PBS) and LNPs encapsulating cystic fibrosis transmembrane conductance regulator (CFTR) mRNA were dosed with MEM media in the absence of serum (N=4 replicate wells). LNP transfected cells were incubated for 5 h, followed by media removal and supplementation with complete MEM media. Cells were further incubated in complete MEM media overnight (24 h).
Following 24 hr incubation, the cells were fixed with PFA and processed for immunofluorescence (IF) using an anti-CFTR rabbit monoclonal antibody. Briefly, the cells were permeabilized with 0.5% TX-100 for 10 min, blocked with 3% bovine serum albumin (BSA)+PBST for 1 hr at room temperature, and incubated with primary anti-CFTR monoclonal antibody overnight at 4° C. Following primary antibody incubation, the cells were incubated with Alexa 488 conjugated secondary antibody for 30 mi and stained with DAPI and HCS CellMask Blue stain. Between different incubation steps the cells were either washed with PBS or PBST. Cells were imaged using Opera Phoenix spinning disk confocal microscope (PerkinElmer), and CFTR protein expression was detected using the 488 nm channel. The image analysis was performed in Harmony 4.9, with main analysis output being CFTR intensity per cell. The results shown in Table 3b show fold-change in CFTR signal intensity per cell compared to buffer (PBS) control (NA=not available).

Data set [3] is described as follows: Encapsulation of mRNA nanoparticles with lipid amines using Ribogreen assay. The class given is physicochemical. The procedure: as §1, §2, §3, §4, §5
Data set [4] deals with HeLa cells. Kind of data set: Luciferase Protein Expression Assay in HeLa Cells. The class given is cell-based, Human. To be noted: LNPs encapsulating Luciferase mRNA, 25 ng per well, N=4 wells; 5 h serum-free then 24 h; ONE-Glo. The procedure: as §3, §6
Cells were transfected with buffer control (PBS) or LNPs encapsulating Luciferase mRNA (25 ng per well; N=4 replicate wells) in serum-free MEM media. LNP transfected cells were incubated for 5 h, followed by media removal and supplementation with complete MEM media. Cells were further incubated in complete MEM media overnight (24 h). Following the 24 hr incubation, luciferase protein expression was measured using the ONE-Glo™ Luciferase Assay (Promega). Cells were lysed using 1× Passive Lysis Buffer (Cat. #E194A) for 10 min in a microplate mixer at room temperature. Luciferase in the supernatant was measured by adding Luciferase Assay Reagent (Cat. #E151A) containing luciferin. Bioluminescence was then immediately measured on a Synergy H1 plate reader (BioTek). The results shown in Table 3a show the Average Relative Light Units (RLU) of each sample tested.

Where [5] appears, read: CFTR mRNA nanoparticle with lipid amine.
The mark [6] stands for this setting: Luciferase mRNA nanoparticle modified with lipid amine.

Counter-ions that a name gives are not always drawn.

With `CC(C)CCC[C@@H](C)[C@H]1CC[C@H]2[C@@H]3CC=C4C[C@@H](OC(=O)CC(=O)N(CCCN)CCCCNCCCN)CC[C@]4(C)[C@H]3CC[C@]12C.Cl.Cl.Cl` [SA59, (3S,8S,9S,10R,13R,14S,17R)-10,13-Dimethyl-17-((R)-6-methylheptan-2-yl)-2,3,4,7,8,9,10,11,12,13,14,15,16,17-tetradecahydro-1H-cyclopenta[a]phenanthren-3-yl 3-((3-aminopropyl)(4-((3-aminopropyl)amino)butyl)amino)-3-oxopropanoate trihydrochloride], the “Diameter (nm)” value turned out to be 76.9 nm in data set [1] (setting [5]) and 74 nm in data set [1] (setting [6]). In addition, the PDI in data set [1] (setting [5]) and in data set [1] (setting [6]) was 0.15 each time. In the data set on HeLa cells [2], the “Average fold-change in CFTR signal intensity per cell compared to buffer control ± standard deviation” value is given as 5.6 ± 0.5 fold-change. Further, the “% Encapsulation (Ribogreen)” value in data set [3] (setting [5]) was 99.6%; in data set [3] (setting [6]) it was 99.7%. Further, in the data set with HeLa cells [4], the “Average Relative Light Units ± Standard Deviation” value worked out at 17590.1 ± 6267.4 Relative Light Units.

For `CC(C)CCC[C@@H](C)[C@H]1CC[C@H]2[C@@H]3CC=C4C[C@@H](OC(=O)N(CCCCNC(C)CCN)C(C)CCN)CC[C@]4(C)[C@H]3CC[C@]12C` (stereo partly drawn) [SA74, (3S,8S,9S,10R,13R,14S,17R)-10,13-dimethyl-17-((R)-6-methylheptan-2-yl)-2,3,4,7,8,9,10,11,12,13,14,15,16,17-tetradecahydro-1H-cyclopenta[a]phenanthren-3-yl (4-aminobutan-2-yl)(4-((4-aminobutan-2-yl)amino)butyl)carbamate trihydrochloride], in data set [1] (setting [6]), the “Diameter (nm)” value is on record as 75 nm and the PDI is 0.19. Also, in data set [3] (setting [6]), the “% Encapsulation (Ribogreen)” value is 99.1%. The “Average Relative Light Units ± Standard Deviation” value in the data set with HeLa cells [4] came to 23899.2 ± 6943.7 Relative Light Units.

In the case of `CC[C@H](CC[C@@H](C)[C@H]1CC[C@H]2[C@@H]3CC=C4C[C@@H](OC(=O)N(CCCCNC(C)CCN)C(C)CCN)CC[C@]4(C)[C@H]3CC[C@]12C)C(C)C` (stereo partly drawn) [SA113, (3S,8S,9S,10R,13R,14S,17R)-17-((2R,5R)-5-ethyl-6-methylheptan-2-yl)-10,13-dimethyl-2,3,4,7,8,9,10,11,12,13,14,15,16,17-tetradecahydro-1H-cyclopenta[a]phenanthren-3-yl (4-aminobutan-2-yl)(4-((4-aminobutan-2-yl)amino)butyl)carbamate trihydrochloride], in data set [1] (setting [6]), the “Diameter (nm)” value is 77 nm and the PDI amounted to 0.23. Also, the “% Encapsulation (Ribogreen)” value in data set [3] (setting [6]) was 99.7%. Besides, the “Average Relative Light Units ± Standard Deviation” value in the data set with HeLa cells [4] is recorded as 20665.4 ± 7510.5 Relative Light Units.

In the case of `CC[C@H](CC[C@@H](C)[C@H]1CC[C@H]2[C@@H]3CC=C4C[C@@H](OC(=O)N(CCCCNCC(F)(F)CN)CC(F)(F)CN)CC[C@]4(C)[C@H]3CC[C@]12C)C(C)C` [SA116, (3S,8S,9S,10R,13R,14S,17R)-17-((2R,5R)-5-ethyl-6-methylheptan-2-yl)-10,13-dimethyl-2,3,4,7,8,9,10,11,12,13,14,15,16,17-tetradecahydro-1H-cyclopenta[a]phenanthren-3-yl (3-amino-2,2-difluoropropyl)(4-((3-amino-2,2-difluoropropyl)amino)butyl)carbamate trihydrochloride], in data set [1] (setting [6]), the “Diameter (nm)” value is 73 nm and the PDI was 0.20. The “% Encapsulation (Ribogreen)” value in data set [3] (setting [6]) turned out to be 97.6%. Further, the “Average Relative Light Units ± Standard Deviation” value in the data set with HeLa cells [4] was found to be 110.9 ± 26.9 Relative Light Units.

On to `CC(C)CCC[C@@H](C)[C@H]1CC[C@H]2[C@@H]3CC=C4C[C@@H](OC(=O)CCCC(=O)N(CCCCNCCC(C)(C)N)CCC(C)(C)N)CC[C@]4(C)[C@H]3CC[C@]12C` [SA121, (3S,8S,9S,10R,13R,14S,17R)-10,13-dimethyl-17-((R)-6-methylheptan-2-yl)-2,3,4,7,8,9,10,11,12,13,14,15,16,17-tetradecahydro-1H-cyclopenta[a]phenanthren-3-yl 5-((3-amino-3-methylbutyl)(4-((3-amino-3-methylbutyl)amino)butyl)amino)-5-oxopentanoate trihydrochloride], for which, in data set [1] (setting [5]), the “Diameter (nm)” value amounted to 79.2 nm and the PDI turned out to be 0.14. Further, in the data set with HeLa cells [2], the “Average fold-change in CFTR signal intensity per cell compared to buffer control ± standard deviation” value amounted to 16.2 ± 1.8 fold-change. For the same compound, the “% Encapsulation (Ribogreen)” value in data set [3] (setting [5]) was 97.4%.

In the case of `CC(C)CCC[C@@H](C)[C@H]1CC[C@H]2[C@@H]3CC=C4C[C@@H](OC(=O)CN(CCCCCCCCN)C(=O)[C@@H](N)CCCCN)CC[C@]4(C)[C@H]3CC[C@]12C.Cl.Cl.Cl` [SA130, (3S,8S,9S,10R,13R,14S,17R)-10,13-dimethyl-17-((R)-6-methylheptan-2-yl)-2,3,4,7,8,9,10,11,12,13,14,15,16,17-tetradecahydro-1H-cyclopenta[a]phenanthren-3-yl N-(L-lysyl)-N-(8-aminooctyl)glycinate trihydrochloride], in data set [1] (setting [5]), the “Diameter (nm)” value was found to be 85.7 nm and the PDI is on record as 0.18. In addition, the “Average fold-change in CFTR signal intensity per cell compared to buffer control ± standard deviation” value with HeLa cells [2] was 1.0 ± 0 fold-change. In data set [3] (setting [5]), the “% Encapsulation (Ribogreen)” value was 95.7%.

`CC[C@H](CC[C@@H](C)[C@H]1CC[C@H]2[C@@H]3CC=C4C[C@@H](OC(=O)N(CCCCNC)CCCNC)CC[C@]4(C)[C@H]3CC[C@]12C)C(C)C` [SA180, (3S,8S,9S,10R,13R,14S,17R)-17-((2R,5R)-5-ethyl-6-methylheptan-2-yl)-10,13-dimethyl-2,3,4,7,8,9,10,11,12,13,14,15,16,17-tetradecahydro-1H-cyclopenta[a]phenanthren-3-yl (4-(methylamino)butyl)(3-(methylamino)propyl)carbamate dihydrochloride]: in data set [1] (setting [6]), the “Diameter (nm)” value is given as 76 nm and the PDI was 0.17. For the same compound, the “% Encapsulation (Ribogreen)” value in data set [3] (setting [6]) is given as 98.7%. The “Average Relative Light Units ± Standard Deviation” value in the data set on HeLa cells [4] amounted to 35476 ± 6770.8 Relative Light Units.
